Experimental data as given in ChEMBL document CHEMBL1136550, “Discovery of orally bioavailable NK1 receptor antagonists” (Bioorg Med Chem Lett, 2003).
Converted amounts (≈) assume the structure as drawn. Values belong to the molecule of their own block, whether it stands above or below them.

Key:
Substance-P receptor [1] = target: T1, Substance-P receptor (Homo sapiens, UniProt P25103); assay: Displacement of [3H]-substance P from human NK1 receptor expressed in CHO cells; assay type: cell-based
T1 sequence (P25103 whole entry): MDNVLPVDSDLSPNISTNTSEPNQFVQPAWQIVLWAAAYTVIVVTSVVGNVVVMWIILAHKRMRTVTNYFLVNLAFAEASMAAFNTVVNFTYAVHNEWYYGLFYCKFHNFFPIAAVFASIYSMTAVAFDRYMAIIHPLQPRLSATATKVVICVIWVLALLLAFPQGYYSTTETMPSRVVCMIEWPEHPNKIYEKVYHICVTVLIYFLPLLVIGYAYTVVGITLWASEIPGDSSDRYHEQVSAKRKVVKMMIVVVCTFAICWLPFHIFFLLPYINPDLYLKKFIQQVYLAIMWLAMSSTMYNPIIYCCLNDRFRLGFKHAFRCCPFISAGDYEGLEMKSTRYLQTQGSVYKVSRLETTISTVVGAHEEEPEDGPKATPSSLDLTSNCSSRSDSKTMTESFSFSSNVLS

Substance-P receptor [2] = target: T1, Substance-P receptor; assay: Displacement of [3H]-substance P from human NK1 receptor expressed in CHO cells, at 10e-5 M; assay type: cell-based
[3] = LogD distribution coefficient between octanol and PBS at pH7.4; assay type: physicochemical; conditions: pH 7.4, read-out: LogD7.4
[4] = Solubility was measured; assay type: physicochemical
Caco-2 = assay: Caco-2 permeability was measured; assay type: functional, cell-based; conditions: Homo sapiens
Cavia porcellus [5] = assay: Inhibition of SP-induced pulmonary edema in guinea-pig 30 min after oral administration at a dose of 1 mg/kg; assay type: functional; conditions: 0.5 h
Cavia porcellus [6] = assay: Inhibition of SP-induced pulmonary edema in guinea-pig 60 min after oral administration at a dose of 1 mg/kg; assay type: functional; conditions: 1 h
Cavia porcellus [7] = assay: Inhibition of SP-induced pulmonary edema in guinea-pig 240 min after oral administration at a dose of 1 mg/kg; assay type: functional; conditions: 4 h
Rattus norvegicus = organism: Rattus norvegicus; assay: Inhibition of contraction induced by 100 mM KCl in isolated rat aorta; assay type: functional
Cavia porcellus [8] = assay: Inhibition of SP-induced pulmonary edema in guinea-pig 30 min after oral administration at a dose of 10 mg/kg; assay type: functional; conditions: 0.5 h
Cavia porcellus [9] = assay: Inhibition of SP-induced pulmonary edema in guinea-pig 240 min after oral administration at a dose of 10 mg/kg; assay type: functional; conditions: 4 h
Cavia porcellus [10] = assay: Inhibition of SP-induced pulmonary edema in guinea-pig 60 min after oral administration at a dose of 10 mg/kg; assay type: functional; conditions: 1 h
Cavia porcellus [11] = assay: Inhibition of SP-induced pulmonary edema in guinea-pig 120 min after oral administration at a dose of 10 mg/kg; assay type: functional; conditions: 2 h

Compound: COC(=O)CN1CCN(C(COCc2cc(C(F)(F)F)cc(C(F)(F)F)c2)c2ccccc2)CC1 (stereo not drawn)
Ki (Substance-P receptor [1]): 39.8 nM

Compound: FC(F)(F)c1ccc(COCC(c2ccccc2)N2CCNCC2)c(C(F)(F)F)c1 (stereo not drawn)
Ki (Substance-P receptor [1]): 15.8 nM

Compound: COc1ccccc1COCC(c1ccccc1)N1CCNCC1 (stereo not drawn)
inhibition (Substance-P receptor [2]): < 20%

Compound: FC(F)(F)c1cc(COCC(c2cccs2)N2CCNCC2)cc(C(F)(F)F)c1 (stereo not drawn)
Ki (Substance-P receptor [1]): 7.94 nM

Compound: FC(F)(F)c1cc(COCC(c2ccc3ccccc3c2)N2CCNCC2)cc(C(F)(F)F)c1 (stereo not drawn)
Ki (Substance-P receptor [1]): 31.6 nM

Compound: C[C@@H](OC[C@@H](c1ccccc1)N1CCN(CC(=O)O)CC1)c1cc(C(F)(F)F)cc(C(F)(F)F)c1
inhibition (Substance-P receptor [2]): < 20%

Compound: COc1c(Br)cc(Br)cc1COCC(c1ccccc1)N1CCNCC1 (stereo not drawn)
Ki (Substance-P receptor [1]): 7.94 nM

Compound: Clc1ccccc1COCC(c1ccccc1)N1CCNCC1 (stereo not drawn)
inhibition (Substance-P receptor [2]): 50%

Compound: C[C@H](OC[C@H](c1ccccc1)N1CCN(CCOCC(=O)O)CC1)c1cc(C(F)(F)F)cc(C(F)(F)F)c1
logD [3]: 2.64
solubility [4]: > 2000 µg/mL
Papps (Caco-2): 8.7 ×10⁻⁶ cm/s
inhibition in vivo at 1 mg/kg (Cavia porcellus [5]): 77%
inhibition in vivo at 1 mg/kg (Cavia porcellus [6]): 75%
inhibition in vivo at 1 mg/kg (Cavia porcellus [7]): 70%
pD2 (Rattus norvegicus): <4

Compound: O=C(O)CCCCN1CCN(C(COCc2cc(C(F)(F)F)cc(C(F)(F)F)c2)c2ccccc2)CC1 (stereo not drawn)
Ki (Substance-P receptor [1]): 10 nM

Compound: COc1cc(CN2CCN(C(COCc3cc(C(F)(F)F)cc(C(F)(F)F)c3)c3ccccc3)C(Cc3ccccc3)C2)cc(OC)c1OC (stereo not drawn)
logD [3]: 5.2
solubility [4]: 0.6 µg/mL (≈ 0.854 µM)
Ki (Substance-P receptor [1]): 251 nM

Compound: NC(=O)N1CCN(C(COCc2cc(C(F)(F)F)cc(C(F)(F)F)c2)c2ccccc2)CC1 (stereo not drawn)
inhibition in vivo at 10 mg/kg (Cavia porcellus [8]): 15%
inhibition in vivo at 10 mg/kg (Cavia porcellus [10]): 47%
Ki (Substance-P receptor [1]): 20 nM
inhibition in vivo at 10 mg/kg (Cavia porcellus [11]): 26%

Compound: N#CCN1CCN(C(COCc2cc(C(F)(F)F)cc(C(F)(F)F)c2)c2ccccc2)CC1 (stereo not drawn)
Ki (Substance-P receptor [1]): 7.94 nM

Compound: FC(F)(F)Oc1ccccc1COCC(c1ccccc1)N1CCNCC1 (stereo not drawn)
inhibition (Substance-P receptor [2]): 50%

Compound: C[C@@H](OC[C@H](c1ccccc1)N1CCN(CCOCC(=O)O)CC1)c1cc(C(F)(F)F)cc(C(F)(F)F)c1
inhibition (Substance-P receptor [2]): < 20%

Compound: FC(F)(F)c1cc(COCC(c2ccccc2)N2CCN(CCN3CCOCC3)CC2)cc(C(F)(F)F)c1 (stereo not drawn)
Ki (Substance-P receptor [1]): 15.8 nM

Compound: Fc1ccc(C(COCc2cc(C(F)(F)F)cc(C(F)(F)F)c2)N2CCNCC2)cc1 (stereo not drawn)
Ki (Substance-P receptor [1]): 79.4 nM

Compound: Fc1cc(COCC(c2ccccc2)N2CCNCC2)cc(C(F)(F)F)c1 (stereo not drawn)
Ki (Substance-P receptor [1]): 12.6 nM

Further molecules by falling Ki (Substance-P receptor [1]), results first:

logD [3]: 2.71
solubility [4]: 200 µg/mL (≈ 359 µM)
Ki (Substance-P receptor [1]): 6.31 nM
Compound: FC(F)(F)c1cc(COCC(c2ccccc2)N2CCN(CCCCc3nn[nH]n3)CC2)cc(C(F)(F)F)c1 (stereo not drawn)

Ki (Substance-P receptor [1]): 5.01 nM
Compound: Fc1ccccc1C(COCc1cc(C(F)(F)F)cc(C(F)(F)F)c1)N1CCNCC1 (stereo not drawn)

Ki (Substance-P receptor [1]): 5.01 nM
Compound: Brc1cc(Br)cc(COCC(c2ccccc2)N2CCNCC2)c1 (stereo not drawn)

Ki (Substance-P receptor [1]): 3.16 nM
Compound: Fc1cccc(C(COCc2cc(C(F)(F)F)cc(C(F)(F)F)c2)N2CCNCC2)c1F (stereo not drawn)

logD [3]: 4.09
solubility [4]: 1 µg/mL (≈ 2.05 µM)
Ki (Substance-P receptor [1]): 2.51 nM
Compound: CCCCN1CCN(C(COCc2cc(C(F)(F)F)cc(C(F)(F)F)c2)c2ccccc2)CC1 (stereo not drawn)
Papps (Caco-2): 5.2 ×10⁻⁶ cm/s
inhibition in vivo at 10 mg/kg (Cavia porcellus [8]): 62%
inhibition in vivo at 10 mg/kg (Cavia porcellus [9]): 58%
pD2 (Rattus norvegicus): 4.6

Ki (Substance-P receptor [1]): 2 nM
Compound: FC(F)(F)c1cc(COCC(c2ccccc2)N2CCN(Cc3ccccn3)CC2)cc(C(F)(F)F)c1 (stereo not drawn)

Ki (Substance-P receptor [1]): 1.58 nM
Compound: CN1CCN(C(COCc2cc(C(F)(F)F)cc(C(F)(F)F)c2)c2ccccc2)CC1 (stereo not drawn)

Ki (Substance-P receptor [1]): 1.58 nM
Compound: FC(F)(F)c1cc(COCC(c2ccccc2Cl)N2CCNCC2)cc(C(F)(F)F)c1 (stereo not drawn)

Ki (Substance-P receptor [1]): 1.58 nM
Compound: FC(F)(F)c1cc(COCC(c2cccc3ccccc23)N2CCNCC2)cc(C(F)(F)F)c1 (stereo not drawn)

Ki (Substance-P receptor [1]): 1.26 nM
Compound: C[C@H](OC[C@H](c1ccccc1)N1CCN(CC(=O)O)CC1)c1cc(C(F)(F)F)cc(C(F)(F)F)c1

Ki (Substance-P receptor [1]): 1 nM
Compound: COc1cccc(C(COCc2cc(C(F)(F)F)cc(C(F)(F)F)c2)N2CCNCC2)c1 (stereo not drawn)
